# Measurements as given in patent US8952024B2, “Herbicidal pyrimidone derivatives” (E I du Pont de Nemours and Company, priority 2009, dated 2015).
# Columns and labels:
# Type in all cases: in vivo
# [1] = test system: large crabgrass (Digitaria sanguinalis); experiment: Test A pre-/postemergence plant response; conditions: for Crabgrass, Large plant response rating: visual injury, 0 to 100 scale (0 no effect, 100 complete control), approx. ten days
# Excerpt: (§1) Seeds of barnyardgrass (Echinochloa crus-galli), large crabgrass (Digitaria sanguinalis), giant foxtail (Setaria faberii), morningglory (Ipomoea spp.), pigweed (Amaranthus retroflexus), velvetleaf (Abutilon theophrasti), wheat (Triticum aestivum) and corn (Zea mays) were planted into a blend of loam soil and sand and treated preemergence with a directed soil spray using test chemicals formulated in a non-phytotoxic solvent mixture which included a surfactant. At the same time these species were also treated with postemergence applications of test compounds formulated in the same manner.
# (§2) Plants ranged in height from two to ten cm and were in the one- to two-leaf stage for the postemergence treatment. Treated plants and untreated controls were maintained in a greenhouse for approximately ten days, after which time all treated plants were compared to untreated controls and visually evaluated for injury. Plant response ratings, summarized in Table A, are based on a 0 to 100 scale where 0 is no effect and 100 is complete control. A dash (-) response means no test result.
# [2] = test system: barnyardgrass (Echinochloa crus-galli); experiment: Test A pre-/postemergence plant response; conditions: for Barnyardgrass plant response rating: visual injury, 0 to 100 scale (0 no effect, 100 complete control), approx. ten days
# Excerpt: as §1, §2
# [3] = test system: morningglory (Ipomoea spp.); experiment: Test A pre-/postemergence plant response; conditions: for Morningglory plant response rating: visual injury, 0 to 100 scale (0 no effect, 100 complete control), approx. ten days
# Excerpt: as §1, §2
# [4] = test system: wheat (Triticum aestivum); experiment: Test A pre-/postemergence plant response; conditions: for Wheat plant response rating: visual injury, 0 to 100 scale (0 no effect, 100 complete control), approx. ten days
# Excerpt: as §1, §2
# corn (Zea mays) = experiment: Test A pre-/postemergence plant response; conditions: for Corn plant response rating: visual injury, 0 to 100 scale (0 no effect, 100 complete control), approx. ten days
# Excerpt: as §1, §2
# [5] = test system: velvetleaf (Abutilon theophrasti); experiment: Test A pre-/postemergence plant response; conditions: for Velvetleaf plant response rating: visual injury, 0 to 100 scale (0 no effect, 100 complete control), approx. ten days
# Excerpt: as §1, §2
# [6] = test system: pigweed (Amaranthus retroflexus); experiment: Test A pre-/postemergence plant response; conditions: for Pigweed plant response rating: visual injury, 0 to 100 scale (0 no effect, 100 complete control), approx. ten days
# Excerpt: as §1, §2
# [7] = test system: giant foxtail (Setaria faberii); experiment: Test A pre-/postemergence plant response; conditions: for Foxtail, Giant plant response rating: visual injury, 0 to 100 scale (0 no effect, 100 complete control), approx. ten days
# Excerpt: as §1, §2
# [8] = test system: barnyardgrass (Echinochloa crus-galli); experiment: Test B flooded paddy test; conditions: for Plant response rating, Barnyardgrass: Flood (flooded paddy test), 125 g ai/ha, scale 0 to 100, 0 is no effect, 100 is complete control, 13 to 15 days; for Barnyardgrass plant response rating: Flood, 31 g ai/ha, scale 0 to 100 (0 no effect, 100 complete control)
# Procedure, shortened: (§3)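 Each compound is added to standing floodwater (3 cm above soil, maintained) in pots of 2-leaf-stage plants; greenhouse exposure lasts 13–15 d before visual comparison with controls on a 0–100 control scale.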
# [9] = test system: ducksalad (Heteranthera limosa); experiment: Test B flooded paddy test; conditions: for Plant response rating, Ducksalad: Flood (flooded paddy test), 125 g ai/ha, scale 0 to 100, 0 is no effect, 100 is complete control, 13 to 15 days; for Ducksalad plant response rating: Flood, 31 g ai/ha, scale 0 to 100 (0 no effect, 100 complete control)
# Procedure, shortened: as §3
# [10] = test system: umbrella sedge (Cyperus difformis); experiment: Test B flooded paddy test; conditions: for Plant response rating, Sedge, Umbrella: Flood (flooded paddy test), 125 g ai/ha, scale 0 to 100, 0 is no effect, 100 is complete control, 13 to 15 days; for Sedge, Umbrella plant response rating: Flood, 31 g ai/ha, scale 0 to 100 (0 no effect, 100 complete control)
# Procedure, shortened: as §3
# rice (Oryza sativa) = experiment: Test B flooded paddy test; conditions: for Plant response rating, Rice: Flood (flooded paddy test), 125 g ai/ha, scale 0 to 100, 0 is no effect, 100 is complete control, 13 to 15 days; for Rice plant response rating: Flood, 31 g ai/ha, scale 0 to 100 (0 no effect, 100 complete control)
# Procedure, shortened: as §3
# [11] = Postemergence, 125 g ai/ha, 0 to 100 scale where 0 is no effect and 100 is complete control
# [12] = Preemergence, 125 g ai/ha, 0 to 100 scale, 0 = no effect, 100 = complete control
# [13] = Preemergence, 500 g ai/ha, 0 to 100 scale, 0 = no effect, 100 = complete control
Structure (SMILES),"Plant response rating, Crabgrass, Large [1, 11]","Crabgrass, Large plant response rating ([1]; Postemergence, 500 g ai/ha)","Plant response rating, Crabgrass, Large [1, 12]","Plant response rating, Crabgrass, Large [1, 13]","Plant response rating, Barnyardgrass [2, 11]","Barnyardgrass plant response rating ([2]; Postemergence, 500 g ai/ha)","Plant response rating, Barnyardgrass [2, 12]","Plant response rating, Barnyardgrass [2, 13]","Plant response rating, Morningglory [3, 11]","Morningglory plant response rating ([3]; Postemergence, 500 g ai/ha)","Plant response rating, Morningglory [3, 12]","Plant response rating, Morningglory [3, 13]","Plant response rating, Wheat [4, 11]","Wheat plant response rating ([4]; Postemergence, 500 g ai/ha)","Plant response rating, Wheat [4, 12]","Plant response rating, Wheat [4, 13]","Plant response rating, Corn (corn (Zea mays); [11])","Corn plant response rating (corn (Zea mays); Postemergence, 500 g ai/ha)","Plant response rating, Corn (corn (Zea mays); [12])","Plant response rating, Corn (corn (Zea mays); [13])",further results
O=C1CCCC(O)=C1C(=O)c1cnc(-c2cc(F)cc(F)c2)n(CC2CCCCC2)c1=O [Compound 163],60,90,0,10,50,100,0,20,10,100,0,0,0,0,0,0,0,20,0,0,"Plant response rating, Velvetleaf [5, 11]: 100; Velvetleaf plant response rating ([5]; Postemergence, 500 g ai/ha): 100; Plant response rating, Velvetleaf [5, 12]: 10; Plant response rating, Velvetleaf [5, 13]: 50; Plant response rating, Pigweed [6, 11]: 80; Pigweed plant response rating ([6]; Postemergence, 500 g ai/ha): 100; Plant response rating, Pigweed [6, 12]: 0; Plant response rating, Pigweed [6, 13]: 60; Plant response rating, Foxtail, Giant [7, 11]: 20; Foxtail, Giant plant response rating ([7]; Postemergence, 500 g ai/ha): 50; Plant response rating, Foxtail, Giant [7, 12]: 0; Plant response rating, Foxtail, Giant [7, 13]: 10; Plant response rating, Barnyardgrass [8]: 0; Barnyardgrass plant response rating [8]: 0; Plant response rating, Ducksalad [9]: 60; Ducksalad plant response rating [9]: 30; Plant response rating, Sedge, Umbrella [10]: 70; Sedge, Umbrella plant response rating [10]: 70; Plant response rating, Rice (rice (Oryza sativa)): 20; Rice plant response rating (rice (Oryza sativa)): 10"
Cc1cc(F)ccc1-n1c(-c2cccc(Cl)c2)ncc(C(=O)C2=C(O)CCCC2=O)c1=O [Compound 167],60,90,20,90,60,100,0,30,60,100,0,0,0,0,0,0,30,30,0,0,"Plant response rating, Velvetleaf [5, 11]: 100; Velvetleaf plant response rating ([5]; Postemergence, 500 g ai/ha): 100; Plant response rating, Velvetleaf [5, 12]: 70; Plant response rating, Velvetleaf [5, 13]: 100; Plant response rating, Pigweed [6, 11]: 90; Pigweed plant response rating ([6]; Postemergence, 500 g ai/ha): 100; Plant response rating, Pigweed [6, 12]: 10; Plant response rating, Pigweed [6, 13]: 90; Plant response rating, Foxtail, Giant [7, 11]: 90; Foxtail, Giant plant response rating ([7]; Postemergence, 500 g ai/ha): 90; Plant response rating, Foxtail, Giant [7, 12]: 10; Plant response rating, Foxtail, Giant [7, 13]: 50; Plant response rating, Barnyardgrass [8]: 20; Barnyardgrass plant response rating [8]: 0; Plant response rating, Ducksalad [9]: 70; Ducksalad plant response rating [9]: 0; Plant response rating, Sedge, Umbrella [10]: 60; Sedge, Umbrella plant response rating [10]: 20; Plant response rating, Rice (rice (Oryza sativa)): 0; Rice plant response rating (rice (Oryza sativa)): 0"
